Test results taken from patent US9604987B2, “Synthesis of autophagy inducing compound and the uses thereof” (Hong Kong Baptist University, priority 2012, dated 2017).

Key:
N2a cells = test: Western blot of autophagy marker LC3-II in N2a cells; type: cell-based, mouse; conditions: for pro-autophagic activity (LC3II protein signal): various concentrations, 12 hrs
Description: Native and denatured PAGE and Western blotting analysis. Samples to be run under denaturing conditions were lysed with RIPA lysis buffer (150 mM NaCl, 50 mM Tris-HCl, 0.35% sodium deoxycholate, 1 mM EDTA, 1% NP40, 1 mM PMSF, 5 μg/ml aprotinin, 5 μg/ml leupeptin). Samples for native gels were lysed with detergent-free lysis buffer (50 mM Tris/HCl pH 7.4, 175 mM NaCl, 5 mM EDTA pH 8.0, 1 mM PMSF, 5 μg/ml aprotinin, 5 μg/ml leupeptin), and sheared 5 times through a 28-gauge needle followed by 2 times of sonication for 5 seconds according to previously described protocol. For denaturing, SDS-PAGE was performed using Tris-Glycine SDS running buffer and SDS sample buffer, and for native conditions, native-PAGE was run with detergent-free Tris-Glycine running buffer (BN2007, Invitrogen) and 4× native sample buffer (BN2003, Invitrogen) on a pre-casted native PAGE gel (BN1002BOX, Invitrogen). The proteins on the gels were then transferred to PVDF membrane (RPN303F, GE Healthcare) and processed for immunoblotting. Membranes were blocked with 5% non-fat milk and probed with the appropriate primary and secondary antibodies. The desired bands were visualized using the ECL kit (32106, Pierce). The band density was quantified using the ImageJ program and normalized to that of the control group.
In order to confirm the neuronal autophagy inducing activity of Cory B (its chemical structure is shown in FIG. 1A), mouse neuroblastoma N2a, rat phenochromocytoma PC12 and human neurobastoma SH-SY5Y are treated with different concentrations of Cory B for 24 hours and cell lysates are subjected to western blotting analysis of LC3-II expression which is an autophagy-specific marker.
To confirm that enhancement of autophagy markers by Cory B is due to induction of autophagy rather than blockage of autophagosome maturation, N2a cells are treated with 25 μM Cory B or 30 μM lysosome inhibitor CQ together with Cory B for 12 hours. Cell lysates are subject to western blot analysis. Data are presented as the mean±SEM from 3 independent experiments (***p<0.001, one-way ANOVA for multiple comparison and Tukey's test as post hoc test). Both LC3-II levels and the number of GFP-LC3 puncta in the Cory B and CQ co-treatment group are much higher than in the CQ-alone treatment group (FIG. 2A-D). Meanwhile, Cory B induces GFP-LC3 puncta formation is abolished by treatment of 5 mM autophagy inhibitor 3-MA for 24 hours (FIG. 2C, D). Cells were fixed in 4% paraformaldehyde and analyzed under a confocal microscope. Data are presented as the mean±SEM of one representative experiment from three independent experiments. (***p<0.001, one-way ANOVA for multiple comparison and Tukey's test as post hoc test). […] Thus, Cory B is indeed an autophagy inducer in neuronal cells.
To compare the activities of oxindole alkaloids on autophagy induction, LC3II expression levels in N2a cells after treatment with Corynoxine B (Cory B) (FIG. 8A), Corynoxine (Cory) (FIG. 8B), Rhynchophylline (Rhy) (FIG. 8C) and Isorhynchophylline (IsoRhy) for 12 hours are examined.
In order to examine the pro-autophagic activities of the synthesized Cory B analogues, neuroblastoma 2a, a neuronal cell line, are treated with various concentrations of the analogues for 12 hrs. The cells are then harvested and lysed with RIPA buffer (150 mM NaCl, 50 mM Tris-HCl pH 7.4, 0.35% sodium deoxycholate, 1 mM EDTA, 1% NP40, 1 mM PMSF, 5 μg/ml aprotinin, 5 μg/ml leupeptin). The sample are lysed on ice with occasional vortex for 30 min, and then centrifuged at 14,000 rpm for 15 min at 4° C. The supernatant are collected and denatured at 95° C. in sample buffer for 5 min. The denatured samples are then separated on 15% SDS-PAGE gels and transferred to PVDF membrane. Membranes are then blocked with 5% non-fat milk and probed with appropriate primary and secondary antibodies. The protein signals of LC3II, marker protein of autophagy, are finally visualized with ECL kit and the protein bands density are quantified by ImageJ program. […]

Drosophila fat body = test: Atg8a-EGFP puncta in Drosophila fat body (confocal); type: in vivo; conditions: L3 larvae, 100 μM, 6 hours
Description: To further test whether CB6 and CB8 could induce autophagy in vivo, Drosolphila expressing Atg8a-GFP (Atg8a, Drosophila homologue of LC3) are obtained by crossing Cg-GAL4, a GAL4 line drives transgene expression in fat body, with UAS-Atg8a-EGFP. Crossed flies are allowed to lay eggs for 1 hour, 90 hours later, the L3 larvae are collected and treated with 100 μM of Cory B, CB6 and CB8 for 6 hours respectively. After treatment, the fat body lobes of the larvae are harvested with fine forceps and fixed with 4% PFA in PBS at room temperature for 15 minutes. Fat body lobes are then washed with PBS three times and subsequently mounted with VECTASHIELD hardset anti-fade mounting medium. The slides are then subjected to confocal microscopy analysis.
Crossed flies were allowed to lay eggs for 1 hr, 90 hrs later, the L3 larvae were collected for further treatment. The compounds were firstly dissolved in DMSO and then diluted to the desired concentration with ddH2O and then mixed thoroughly with instant fly food. The L3 larvae were placed in the prepared food and received treatment for 6 hrs. After treatment, the fat body lobes of the larvae were harvested with fine forceps and fixed with 4% PFA in PBS at room temperature for 15 min. Fat body lobes were then washed with PBS three times and subsequently mounted with VECTASHIELD hardset antifade mounting medium. […]

Row | SMILES | LC3-II levels and number of GFP-LC3 puncta, co-treatment with CQ versus CQ alone (N2a cells; 25 μM Cory B + 30 μM CQ, 12 hours) | LC3-II levels (N2a cells; N2a, 0-25 μM, 24 hours) | autophagy induction (LC3II expression level) (N2a cells; N2a, oxindole alkaloids, 12 hours) | autophagy in vivo (Atg8a-EGFP puncta) (Drosophila fat body) | pro-autophagic activity (LC3II protein signal) (N2a cells; N2a)
1 | CC[C@@H]1CN2CC[C@]3(C(=O)Nc4ccccc43)C2C[C@@H]1C(=COC)C(=O)OC (stereo partly shown) [Cory B, Corynoxine B] | much higher | increases levels of LC3-II | significantly activate autophagy | – | –
2 | C=CCN1C(=O)[C@]2(CCN3C[C@@H](CC)[C@@H](/C(=C\OC)C(=O)OC)C[C@H]32)c2ccccc21 [CB8] | – | – | – | able to induce autophagy | novel autophagy inducer
3 | CCCN1C(=O)[C@]2(CCN3C[C@@H](CC)[C@@H](/C(=C\OC)C(=O)OC)C[C@H]32)c2ccccc21 [CB6] | – | – | – | able to induce autophagy | novel autophagy inducer
